This is an account of results in patent US10723711B2, “1,1,1-trifluoro-3-hydroxypropan-2-yl carbamate derivatives and 1,1,1-trifluoro-4-hydroxybutan-2-yl carbamate derivatives as MAGL inhibitors” (PFIZER INC., priority 2015, dated 2020).

As usually defined, the IC50 is the concentration needed to halve the response being measured.

Where two headings read alike, the source gives them in different places.

What all share (assay type): biochemical
The target of test [1] is T1, human recombinant Monoacylglycerol Lipase (Homo sapiens, UniProt Q99685).
T1 sequence (Q99685 1-303): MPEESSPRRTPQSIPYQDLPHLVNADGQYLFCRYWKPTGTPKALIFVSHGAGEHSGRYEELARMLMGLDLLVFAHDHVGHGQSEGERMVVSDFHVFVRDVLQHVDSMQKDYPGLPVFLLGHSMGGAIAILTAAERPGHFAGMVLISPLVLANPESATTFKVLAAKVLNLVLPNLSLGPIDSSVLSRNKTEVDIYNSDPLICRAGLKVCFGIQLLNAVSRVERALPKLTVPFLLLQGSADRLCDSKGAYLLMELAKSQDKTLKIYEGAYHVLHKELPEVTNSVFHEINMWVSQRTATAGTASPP
Description: MAGL inhibition enzymatic assay, fluorogenic substrate 7-HCA, IC50 at T=0 min or after 30 minute incubation (T=30 min). To be noted: geometric mean of 2-4 determinations unless otherwise indicated. The protocol: An equal volume of 7-HCA in assay buffer with 10% DMSO was added either immediately (T=0 min) or after a 30 minute incubation (T=30 min) to initiate the reaction. […] After these dilutions, the final concentration of the test compound ranged from 3 μM to 0.03 nM. […] IC50 values were generated based on a four parameter fit model using ABASE software from IDBS.

Test [2] addresses T1, human recombinant Monoacylglycerol Lipase. Description: MAGL inactivation, enzyme progress curves, kinact/KI. As to conditions: from enzyme progress curves, T = 0 min protocol; geometric mean of 2-4 determinations unless otherwise indicated. The method in brief: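 Human recombinant MAGL ([…]) with compound, 7-HCA substrate (final 5 μM) added immediately (T=0 min), in pH 7.4 HEPES buffer with 0.1% Triton X-100 and 25% glycerin. Fluorescence (Ex/Em 340/465) was read every minute over 60 min, giving progress curves at decreasing compound concentrations (final 3 μM to 0.03 nM).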

A further test concerns the target T2, human recombinant FAAH (Homo sapiens, UniProt O00519).
T2 construct: purchased Cayman 10010183
T2 sequence (O00519 1-579): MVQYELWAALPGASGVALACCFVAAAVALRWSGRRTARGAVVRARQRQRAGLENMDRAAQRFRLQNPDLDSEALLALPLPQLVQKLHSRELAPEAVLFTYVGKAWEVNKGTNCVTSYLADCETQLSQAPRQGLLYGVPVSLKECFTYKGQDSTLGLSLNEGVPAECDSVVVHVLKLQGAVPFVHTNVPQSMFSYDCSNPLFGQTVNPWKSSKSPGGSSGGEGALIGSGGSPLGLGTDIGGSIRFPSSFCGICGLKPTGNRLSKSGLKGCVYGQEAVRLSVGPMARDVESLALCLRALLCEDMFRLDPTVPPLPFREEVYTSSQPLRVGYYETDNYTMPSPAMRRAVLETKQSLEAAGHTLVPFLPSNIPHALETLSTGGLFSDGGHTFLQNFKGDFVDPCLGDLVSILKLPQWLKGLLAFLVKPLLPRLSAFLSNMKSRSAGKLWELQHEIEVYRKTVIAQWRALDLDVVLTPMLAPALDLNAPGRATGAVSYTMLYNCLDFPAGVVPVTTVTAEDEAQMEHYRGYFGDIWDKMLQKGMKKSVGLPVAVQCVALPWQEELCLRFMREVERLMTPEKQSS
Description: FAAH inhibition enzymatic assay, fluorescent substrate Arachidonoyl-AMC, 30 minute incubation. As to conditions: T = 30 min (30 minute incubation); geometric mean of 2-4 determinations unless otherwise indicated. The protocol:
Assessment of FAAH inhibition utilizes human recombinant FAAH and the fluorescent substrate, Arachidonoyl-AMC. 400 nL of a test compound at decreasing concentrations was spotted into a 384-well back plate (PerkinElmer, 6007279) using a Labcyte Echo, followed by addition of 10 μl of FAAH enzyme (Cayman 10010183) in assay buffer (50 mM Tris, pH 9.0, 1 mM EDTA). After a 30 minute incubation at room temperature, 10 μL of Arachidonyl-AMCA was added in assay buffer with 16% DMSO. Final concentration of FAAH enzyme was 0.0125 Units and AAMCA substrate was used at the Km of 5 μM. […] The reaction was allowed to progress for 60 minutes, after which the plate was read on a Molecular Devices FlexStation reader at an Ex/Em of 355/460. Percent inhibitions were calculated based on controls wells containing either no compound (0% inhibition) or a control compound (e.g., an FAAH inhibitor whose activity is known or was previously reported in the literature, such as one with about 100% inhibition). IC50 values were generated based on a four parameter fit model using ABASE software from IDBS.

Where [3] appears, read: T = 0 min (substrate added immediately), read-out: MAGL (T = 0 min) IC50.
The mark [4] stands for this setting: T = 30 min (30 minute incubation), read-out: MAGL (T = 30 min) IC50.

Turning to `O=C(O[C@H](CO)C(F)(F)F)N1C[C@@H]2[C@H](C1)[C@H]2c1ccn(-c2ccc(F)cc2)n1` [Example 3, (2R)-1,1,1-Trifluoro-3-hydroxypropan-2-yl (1α,5α,6α)-6-[1-(4-fluorophenyl)-1H-pyrazol-3-yl]-3-azabicyclo[3.1.0]hexane-3-carboxylate], the IC50 in test [1] (setting [3]) was found to be 35 nM; in test [1] (setting [4]) it was 3 nM; at human recombinant FAAH, 2480 nM. The “MAGL kinact/KI” value in test [2] is 20005 1/s per M.
With `O=C(O[C@H](CO)C(F)(F)F)N1CCC2(CC1)CN(S(=O)(=O)c1ccccc1)CCO2` [Example 7, (2R)-1,1,1-Trifluoro-3-hydroxypropan-2-yl 4-(phenylsulfonyl)-1-oxa-4,9-diazaspiro[5.5]undecane-9-carboxylate], the concentration for half-maximal inhibition (IC50) in test [1] (setting [3]) is 29 nM; in test [1] (setting [4]), 3 nM; on human recombinant FAAH, > 24100 nM. Besides, in test [2], the “MAGL kinact/KI” value is 29124 1/s per M.
On to `O=C(O[C@H](CO)C(F)(F)F)N1CCC2(CC1)C[C@H](NS(=O)(=O)c1ccccc1)CO2` [Example 8, (2R)-1,1,1-Trifluoro-3-hydroxypropan-2-yl (3S)-3-[(phenylsulfonyl)amino]-1-oxa-8-azaspiro[4.5]decane-8-carboxylate], for which the results for the concentration for half-maximal inhibition (IC50) (in test [1] (setting [3]); in test [1] (setting [4]); at human recombinant FAAH) were 57 nM, 5 nM and > 30000 nM, respectively. In test [2], the “MAGL kinact/KI” value was 6754 1/s per M.
Taken in the same sequence, the figures for `O=C(O[C@H](CO)C(F)(F)F)N1CCC(Oc2ccc(C3CC3)cn2)CC1` [Example 10, (2R)-1,1,1-Trifluoro-3-hydroxypropan-2-yl 4-[(5-cyclopropylpyridin-2-yl)oxy]piperidine-1-carboxylate] were 77 nM, 7 nM, > 30000 nM and 5205 1/s per M.
On to `O=C(O[C@H](CO)C(F)(F)F)N1CCC2(CC1)CN(S(=O)(=O)c1cccc(F)c1)CCO2` [Example 11, (2R)-1,1,1-Trifluoro-3-hydroxypropan-2-yl 4-[(3-fluorophenyl)sulfonyl]-1-oxa-4,9-diazaspiro[5.5]undecane-9-carboxylate], for which the IC50 in test [1] (setting [3]) was 14 nM; in test [1] (setting [4]), 1 nM; at human recombinant FAAH it was > 30000 nM. Besides, the “MAGL kinact/KI” value in test [2] was 147964 1/s per M.
For `O=C(O[C@H](CO)C(F)(F)F)N1CCC2(CCCN(S(=O)(=O)c3ccc(F)cc3)C2)CC1` [Example 12, (2R)-1,1,1-Trifluoro-3-hydroxypropan-2-yl 2-[(4-fluorophenyl)sulfonyl]-2,9-diazaspiro[5.5]undecane-9-carboxylate], the IC50 is 188 nM in test [1] (setting [3]), 17 nM in test [1] (setting [4]) and > 30000 nM at human recombinant FAAH. Further, in test [2], the “MAGL kinact/KI” value was 1801 1/s per M.
For the molecule `O=C(O)C(F)(F)F.O=C(O[C@H](CO)C(F)(F)F)N1CCC(Oc2nccc3ccccc23)CC1` [Example 26, (2R)-1,1,1-Trifluoro-3-hydroxypropan-2-yl 4-(isoquinolin-1-yloxy)piperidine-1-carboxylate, trifluoroacetic acid salt], the IC50 is 31 nM in test [1] (setting [3]), 2 nM in test [1] (setting [4]) and 7730 nM at human recombinant FAAH. For the same molecule, the “MAGL kinact/KI” value in test [2] is recorded as 16949 1/s per M.
Taken in the same sequence, the figures for `O=C(OC(C(F)(F)F)C(F)(F)CO)N1C[C@@H]2[C@H](C1)[C@H]2c1ccn(-c2ccc(F)cc2)n1` (stereo partly drawn) [Example 39] were 34 nM, 2 nM, 6010 nM and 9893 1/s per M.
As for `O=C(O[C@H](CO)C(F)(F)F)N1CCC(CNS(=O)(=O)c2ccc(F)cc2)CC1` [Example 47], the half-maximal inhibitory concentration (IC50) was 174 nM in test [1] (setting [3]), 17 nM in test [1] (setting [4]) and > 30000 nM on human recombinant FAAH. In addition, the “MAGL kinact/KI” value in test [2] is recorded as 5046 1/s per M.
For `Cc1cc(S(=O)(=O)N2CCOC3(CCN(C(=O)O[C@H](CO)C(F)(F)F)CC3)C2)ccc1F` [Example 51], the IC50 in test [1] (setting [3]) was 43 nM; in test [1] (setting [4]) it was 4 nM; on human recombinant FAAH, > 30000 nM. For the same molecule, the “MAGL kinact/KI” value in test [2] was 10340 1/s per M.
Consider `O=C(O[C@H](CO)C(F)(F)F)N1CCC2(CC1)CN(S(=O)(=O)c1ccc(F)c(F)c1)CCO2` [Example 52], for which the IC50 in test [1] (setting [3]) was 56 nM; in test [1] (setting [4]), 5 nM; at human recombinant FAAH it was > 30000 nM. In test [2], the “MAGL kinact/KI” value is 7262 1/s per M.
`O=C(O[C@H](CO)C(F)(F)F)N1CCC(Oc2ccc(C(F)(F)F)cn2)CC1` [Example 53]: the IC50 in test [1] (setting [3]) is 53 nM; in test [1] (setting [4]), 6 nM; at human recombinant FAAH it was > 30000 nM. In test [2], the “MAGL kinact/KI” value is 6900 1/s per M.
Turning to `CN(CC1CCN(C(=O)O[C@H](CO)C(F)(F)F)CC1)S(=O)(=O)c1ccc(F)cc1` [Example 62], the half-maximal inhibitory concentration (IC50) was 67 nM in test [1] (setting [3]), 7 nM in test [1] (setting [4]) and > 30000 nM at human recombinant FAAH. Also, the “MAGL kinact/KI” value in test [2] is reported as 216 1/s per M.
Consider `O=C(O[C@H](CO)C(F)(F)F)N1CCC(Oc2ncc(C(F)(F)F)cc2Cl)CC1` [Example 63], for which the values for the IC50 (in test [1] (setting [3]); in test [1] (setting [4]); on human recombinant FAAH) were 7 nM, 1 nM and 3010 nM, respectively. Besides, the “MAGL kinact/KI” value in test [2] is 7347 1/s per M.
Take `CC(C)c1cccc(S(=O)(=O)N2CCOC3(CCN(C(=O)O[C@H](CO)C(F)(F)F)CC3)C2)c1` [Example 66]: the half-inhibitory concentration (IC50) in test [1] (setting [3]) was 3 nM; in test [1] (setting [4]) it was 0.2 nM; on human recombinant FAAH, 7870 nM. Also, in test [2], the “MAGL kinact/KI” value is reported as 430364 1/s per M.
Taken in the same sequence, the figures for `C#Cc1ccc(S(=O)(=O)N2CCOC3(CCN(C(=O)O[C@H](CO)C(F)(F)F)CC3)C2)cc1` [Example 68] were 56 nM, 6 nM, > 30000 nM and 16586 1/s per M.
In the case of `Cc1ccc(S(=O)(=O)N2CCOC3(CCN(C(=O)O[C@H](CO)C(F)(F)F)CC3)C2)cc1F` [Example 73], the half-maximal inhibitory concentration (IC50) was 5 nM in test [1] (setting [3]), 1 nM in test [1] (setting [4]) and > 30000 nM at human recombinant FAAH. The “MAGL kinact/KI” value in test [2] is on record as 96515 1/s per M.
The like results for `CCc1cccc(S(=O)(=O)N2CCOC3(CCN(C(=O)O[C@H](CO)C(F)(F)F)CC3)C2)c1` [Example 77] were, in that order, 5 nM, 1 nM, 5950 nM and 403739 1/s per M.
Regarding `CC(C)Oc1ccc(S(=O)(=O)N2CCOC3(CCN(C(=O)O[C@H](CO)C(F)(F)F)CC3)C2)cc1` [Example 78], the results for the half-inhibitory concentration (IC50) (in test [1] (setting [3]); in test [1] (setting [4]); on human recombinant FAAH) were 6 nM, 1 nM and 2580 nM, respectively. For the same molecule, the “MAGL kinact/KI” value in test [2] is listed as 16865 1/s per M.
Taken in the same sequence, the figures for `C#Cc1cccc(S(=O)(=O)N2CCOC3(CCN(C(=O)O[C@H](CO)C(F)(F)F)CC3)C2)c1` [Example 79] were 7 nM, 1 nM, 10000 nM and 26513 1/s per M.
The like results for `C#Cc1ccc(-n2ccc(C3CCN(C(=O)O[C@H](CO)C(F)(F)F)CC3)n2)cc1` [Example 80] were, in that order, 7 nM, 1 nM, 7920 nM and 126124 1/s per M.
